pIC50, pKd: −log10 of the molar value.
Legend:
KRas G12D [1] = biological target: T1, KRas G12D (Homo sapiens, UniProt P01116, G12D); experiment: KRas G12D Surface Plasmon Resonance (SPR) Binding Assay; conditions: Biacore T200, biotinylated Avidin-tagged KRAS protein on SA chip, 20 C, 1:1 binding model
Procedure, shortened: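 Biotinylated Avi-tagged KRAS G12D was captured on a streptavidin chip; compounds were injected as 3-fold dilution series in HBS-Mg buffer, pH 7.5, with DMSO at 20 C (60 s contact, 120 s dissociation). Binding constants came from 1:1 model fits.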
Target sequence in this assay (P01116 1-188 isoform P01116-2 G12D): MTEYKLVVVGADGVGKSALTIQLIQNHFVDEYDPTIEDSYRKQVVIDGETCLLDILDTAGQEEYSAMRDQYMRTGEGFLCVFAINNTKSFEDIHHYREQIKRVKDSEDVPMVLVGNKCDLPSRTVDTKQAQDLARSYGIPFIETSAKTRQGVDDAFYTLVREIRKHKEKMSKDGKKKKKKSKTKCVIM

[2] = test system: KRas G12D-mediated Phosphorylation of ERK; experiment: Inhibition of KRas G12D-mediated Phosphorylation of ERK in AGS cells; type: cell-based; conditions: Homo sapiens; AGS cells expressing G12D, 3 hours, phospho-ERK normalized to GAPDH
Procedure, shortened: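 AGS cells (endogenous KRas G12D) were treated with compounds for 3 h in 0.5% DMSO, then fixed, permeabilized and immunostained. The phospho-ERK (Thr202/Tyr204) signal was normalized to GAPDH in-cell by infrared detection and expressed as % of DMSO control. IC50 came from a 4-parameter fit.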

KRas G12D [3] = biological target: T1, KRas G12D; experiment: KRas G12D Binding Assay (TR-FRET displacement of labeled tracer); set-up: corresponding to amino acids 1:169, produced at Array BioPharma; biotin (protein is biotinylated); conditions: TR-FRET displacement of Cy5 labelled tracer, biotinylated GDP-loaded KRAS G12D (aa 1:169), 60 minute incubation at 22° C.
Procedure, shortened: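 Biotinylated GDP-loaded human KRAS G12D (aa 1–169) incubated with Cy5 tracer, Eu-streptavidin and compound (2% DMSO final) in 50 mM HEPES pH 7.5, 5 mM MgCl2, 0.005% Tween-20, 1 mM DTT, 60 min at 22 °C. TR-FRET ratio converted to percent of control; IC50 at 50 POC from 4-parameter logistic fit.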
Target sequence in this assay (P01116 1-169 isoform P01116-2 G12D): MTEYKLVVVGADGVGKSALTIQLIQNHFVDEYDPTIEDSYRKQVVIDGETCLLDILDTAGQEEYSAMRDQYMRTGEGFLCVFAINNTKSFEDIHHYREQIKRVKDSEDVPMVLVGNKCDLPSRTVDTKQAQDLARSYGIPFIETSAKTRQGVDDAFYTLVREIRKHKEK

Row | Structure (SMILES) | pKd (KRas G12D [1]) | pIC50 [2] | pIC50 (KRas G12D [3])
1 | CO[C@@H]1C[C@@H]2CN(c3nc(OC[C@@H]4CCCN4C)nc4c3CCN(c3cc(O)cc5ccccc35)C4)C[C@H]1N2 [Example 37, 4-(4-((1R,5R,6R)-6-methoxy-3,8-diazabicyclo[3.2.1]octan-3-yl)-2-(((S)-1-methylpyrrolidin-2-yl)methoxy)-5,8-dihydropyrido[3,4-d]pyrimidin-7(6H)-yl)naphthalen-2-ol] | 4.89 | 5.41 | 7.06
2 | CN1CCC[C@H]1COc1nc2c(c(N3CC4CC(F)C(C3)N4)n1)CCN(c1cc(O)cc3ccccc13)C2 (stereo partly drawn) [Example 38, 4-(4-(6-fluoro-3,8-diazabicyclo[3.2.1]octan-3-yl)-2-(((S)-1-methylpyrrolidin-2-yl)methoxy)-5,8-dihydropyrido[3,4-d]pyrimidin-7(6H)-yl)naphthalen-2-ol] | 5.63 | 5.30 | 7.13
3 | CN1CCC[C@H]1COc1nc2c(c(N3C[C@H]4C[C@@H](CC#N)[C@@H](C3)N4)n1)CCN(c1cccc3cccc(Cl)c13)C2 [Example 40, 2-((1R,5S,6S)-3-(7-(8-chloronaphthalen-1-yl)-2-(((S)-1-methylpyrrolidin-2-yl)methoxy)-5,6,7,8-tetrahydropyrido[3,4-d]pyrimidin-4-yl)-3,8-diazabicyclo[3.2.1]octan-6-yl)acetonitrile] | 6.02 | < 4.78 | 7.19
4 | Cc1cccc2cccc(N3CCc4c(nc(OC[C@@H]5CCCN5C)nc4N4C[C@H]5CC[C@@H](C4)N5)C3)c12 [Example 52, 4-((1R,5S)-3,8-diazabicyclo[3.2.1]octan-3-yl)-7-(8-methylnaphthalen-1-yl)-2-(((S)-1-methylpyrrolidin-2-yl)methoxy)-5,6,7,8-tetrahydropyrido[3,4-d]pyrimidine] | 3.60 | 4.83 | 6.44
5 | CN1CCC[C@H]1COc1nc2c(c(N3C[C@H]4CC[C@@H](C3)N4)n1)CCN(c1cc(C(F)F)cc3ccccc13)C2 [Example 56, 4-((1R,5S)-3,8-diazabicyclo[3.2.1]octan-3-yl)-7-(3-(difluoromethyl)naphthalen-1-yl)-2-(((S)-1-methylpyrrolidin-2-yl)methoxy)-5,6,7,8-tetrahydropyrido[3,4-d]pyrimidine] | 4.05 | < 4.78 | < 5.00
6 | CN1CCC[C@H]1COc1nc2c(c(N3C[C@H]4CC[C@@H](C3)N4)n1)CCN(c1cncc3cccc(Cl)c13)C2 [Example 58, 4-((1R,5S)-3,8-diazabicyclo[3.2.1]octan-3-yl)-7-(5-chloroisoquinolin-4-yl)-2-(((S)-1-methylpyrrolidin-2-yl)methoxy)-5,6,7,8-tetrahydropyrido[3,4-d]pyrimidine] | 6.36 | < 4.78 | 6.55
7 | CN1CCC[C@H]1COc1nc2c(c(N3CC4CCC(C)(C3)N4)n1)CCN(c1cc(O)cc3ccccc13)C2 (stereo partly drawn) [Example 61, 4-(4-(1-methyl-3,8-diazabicyclo[3.2.1]octan-3-yl)-2-(((S)-1-methylpyrrolidin-2-yl)methoxy)-5,8-dihydropyrido[3,4-d]pyrimidin-7(6H)-yl)naphthalen-2-ol] | 6.76 | 5.16 | 6.73
8 | Fc1ccc2cccc(N3CCc4c(nc(OCC56CCCN5CCC6)nc4N4C[C@H]5CC[C@@H](C4)N5)C3)c2c1Cl [Example 62, 4-((1R,5S)-3,8-diazabicyclo[3.2.1]octan-3-yl)-7-(8-chloro-7-fluoronaphthalen-1-yl)-2-((tetrahydro-1H-pyrrolizin-7a(5H)-yl)methoxy)-5,6,7,8-tetrahydropyrido[3,4-d]pyrimidine] | 8.09 | 5.71 | 9.00
9 | FC(F)(F)c1c(Cl)cccc1N1CCc2c(nc(OCC34CCCN3CCC4)nc2N2C[C@H]3CC[C@@H](C2)N3)C1 [Example 63, 4-((1R,5S)-3,8-diazabicyclo[3.2.1]octan-3-yl)-7-(3-chloro-2-(trifluoromethyl)phenyl)-2-((tetrahydro-1H-pyrrolizin-7a(5H)-yl)methoxy)-5,6,7,8-tetrahydropyrido[3,4-d]pyrimidine] | 7.91 | 5.18 | 8.29
10 | Cc1cccc(N2CCc3c(nc(OCC45CCCN4CCC5)nc3N3C[C@H]4CC[C@@H](C3)N4)C2)c1C(F)(F)F [Example 64, 4-((1R,5S)-3,8-diazabicyclo[3.2.1]octan-3-yl)-7-(3-methyl-2-(trifluoromethyl)phenyl)-2-((tetrahydro-1H-pyrrolizin-7a(5H)-yl)methoxy)-5,6,7,8-tetrahydropyrido[3,4-d]pyrimidine] | 7.17 | < 4.78 | 7.89
11 | CN1CCC[C@H]1COc1nc2c(c(N3C[C@H]4CC[C@@H](C3)N4)n1)CCN(c1cccc3ccc(F)c(Cl)c13)C2 [Example 65, 4-((1R,5S)-3,8-diazabicyclo[3.2.1]octan-3-yl)-7-(8-chloro-7-fluoronaphthalen-1-yl)-2-(((S)-1-methylpyrrolidin-2-yl)methoxy)-5,6,7,8-tetrahydropyrido[3,4-d]pyrimidine] | 7.74 | < 4.78 | 7.82
12 | CN1CCC[C@H]1COc1nc2c(c(N3C[C@H]4CC[C@@H](C3)N4)n1)CCN(c1cccc3ccc(F)cc13)C2 [Example 72, 4-((1R,5S)-3,8-diazabicyclo[3.2.1]octan-3-yl)-7-(7-fluoronaphthalen-1-yl)-2-(((S)-1-methylpyrrolidin-2-yl)methoxy)-5,6,7,8-tetrahydropyrido[3,4-d]pyrimidine] | 6.04 | < 4.78 | 6.65
13 | CN1CCC[C@H]1COc1nc2c(c(N3C[C@H]4CC[C@@H](C3)N4)n1)CCN(c1c(F)cccc1C(F)(F)F)C2 [Example 75, 4-((1R,5S)-3,8-diazabicyclo[3.2.1]octan-3-yl)-7-(2-fluoro-6-(trifluoromethyl)phenyl)-2-(((S)-1-methylpyrrolidin-2-yl)methoxy)-5,6,7,8-tetrahydropyrido[3,4-d]pyrimidine] | 3.77 | < 4.78 | < 5.00
14 | CN1CCC[C@H]1COc1nc2c(c(N3C[C@H]4CC[C@@H](C3)N4)n1)CCN(c1c(F)ccc(F)c1C(F)F)C2 [Example 76, 4-((1R,5S)-3,8-diazabicyclo[3.2.1]octan-3-yl)-7-(2-(difluoromethyl)-3,6-difluorophenyl)-2-(((S)-1-methylpyrrolidin-2-yl)methoxy)-5,6,7,8-tetrahydropyrido[3,4-d]pyrimidine] | 4.01 | < 4.78 | < 5.00
15 | CN1CCC[C@H]1COc1nc2c(c(N3C[C@H]4CC(CCO)[C@@H](C3)N4)n1)CCN(c1cccc3cccc(Cl)c13)C2 (stereo partly drawn) [Example 91, 2-((1R,5S)-3-(7-(8-chloronaphthalen-1-yl)-2-(((S)-1-methylpyrrolidin-2-yl)methoxy)-5,6,7,8-tetrahydropyrido[3,4-d]pyrimidin-4-yl)-3,8-diazabicyclo[3.2.1]octan-6-yl)ethan-1-ol] | 6.75 | < 4.78 | 7.11
16 | CN1CCC[C@H]1COc1nc2c(c(N3C[C@@H]4C[C@@H](O)[C@H](C3)N4)n1)CCN(c1cccc3cccc(Cl)c13)C2 [Example 95, (1S,5S,6R)-3-(7-(8-chloronaphthalen-1-yl)-2-(((S)-1-methylpyrrolidin-2-yl)methoxy)-5,6,7,8-tetrahydropyrido[3,4-d]pyrimidin-4-yl)-3,8-diazabicyclo[3.2.1]octan-6-ol] | 7.23 | < 4.78 | 7.30
17 | CN1CCC[C@H]1COc1nc2c(c(N3C[C@H]4CC[C@@H](C3)N4)n1)CCN(c1cc(O)c(Br)c3ccccc13)C2 [Example 109, 4-(4-((1R,5S)-3,8-diazabicyclo[3.2.1]octan-3-yl)-2-(((S)-1-methylpyrrolidin-2-yl)methoxy)-5,8-dihydropyrido[3,4-d]pyrimidin-7(6H)-yl)-1-bromonaphthalen-2-ol] | 7.68 | 6.18 | 8.26
